Non-standard residues stand in square brackets, D forms with d. Residues, ends and D or L forms follow the SMILES beside them. *: point of attachment. Hydrocinnamoyl = O=C(CCc1ccccc1)*; pS = N[C@@H](COP(=O)(O)O)C(=O)O; X2 = COc1ccc(CC(=O)*)cc1OC
Target: BRCT-BRCA1 (Homo sapiens, UniProt P38398)
Assay: Fluorescence polarization
Assay type: binding

Sequence of BRCT-BRCA1 (P38398 1646-1859 limits assumed): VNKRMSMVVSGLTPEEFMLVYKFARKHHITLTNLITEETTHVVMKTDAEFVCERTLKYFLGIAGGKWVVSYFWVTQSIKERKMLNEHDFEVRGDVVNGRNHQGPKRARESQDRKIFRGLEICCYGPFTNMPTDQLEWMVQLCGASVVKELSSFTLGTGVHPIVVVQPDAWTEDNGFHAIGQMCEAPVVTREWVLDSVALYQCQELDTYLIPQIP

Row | SMILES | fold higher activity than parent peptide 4 (compared to parent peptide 4) | fold loss of activity compared to 9 (compared to mimic 9)
1 | CC(C)[C@H](NC(=O)[C@@H]1CCCN1C(=O)[C@H](COP(=O)(O)O)NC(=O)CCc1ccccc1)C(=O)N[C@@H](Cc1ccccc1)C(=O)O [compound 10] (Hydrocinnamoyl-[pS]PVF-OH; N-terminus assumed) | ~ 3 fold | –
2 | COc1ccc(CC(=O)N[C@@H](COP(=O)(O)O)C(=O)N2CCC[C@H]2C(=O)N[C@H](C(=O)N[C@@H](Cc2ccccc2)C(=O)O)C(C)C)cc1OC [compound 13] (X2-[pS]PVF-OH; N-terminus assumed) | – | ~ 150 fold
